Where “and” joins values, the source holds several entries; their conditions need not be identical. Identical values can stand only once. Like-named read-outs stand apart in the source and are kept apart here.
Experiments:
MtbCoaBC = MtbCoaBC (Mycobacterium tuberculosis, UniProt P9WNZ1); test: biochemical; assay type: biochemical; conditions: for activity at 0.015625 µM / activity at 0.03125 µM / activity at 0.0625 µM / activity at 0.25 µM / activity at 0.5 µM: relative to average DMSO CT; for Activity R1 / Activity R3: slope of absorbance at 360 nm vs time (s)
human CoaB (HCoaB) = human CoaB (HCoaB) (Homo sapiens, UniProt Q9HAB8); test: EnzChek pyrophosphate assay, HCoaB; assay type: biochemical
[1] = inhibitor concentration 1 (log 0), unit not shown, three replicates
[2] = inhibitor concentration 2 (log 0.30103), unit not shown, three replicates

MtbCoaBC, sequence (P9WNZ1 whole entry): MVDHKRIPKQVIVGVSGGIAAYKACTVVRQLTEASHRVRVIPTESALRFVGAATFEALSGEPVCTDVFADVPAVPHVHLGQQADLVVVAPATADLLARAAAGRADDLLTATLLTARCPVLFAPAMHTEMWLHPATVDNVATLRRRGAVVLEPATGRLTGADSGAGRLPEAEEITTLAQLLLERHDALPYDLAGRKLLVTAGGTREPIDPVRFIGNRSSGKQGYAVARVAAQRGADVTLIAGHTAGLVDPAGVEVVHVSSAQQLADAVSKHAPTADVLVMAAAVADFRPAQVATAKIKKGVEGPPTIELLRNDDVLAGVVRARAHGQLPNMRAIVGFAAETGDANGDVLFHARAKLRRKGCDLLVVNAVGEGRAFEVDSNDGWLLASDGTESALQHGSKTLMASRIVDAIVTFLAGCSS
human CoaB (HCoaB), sequence (Q9HAB8 whole entry): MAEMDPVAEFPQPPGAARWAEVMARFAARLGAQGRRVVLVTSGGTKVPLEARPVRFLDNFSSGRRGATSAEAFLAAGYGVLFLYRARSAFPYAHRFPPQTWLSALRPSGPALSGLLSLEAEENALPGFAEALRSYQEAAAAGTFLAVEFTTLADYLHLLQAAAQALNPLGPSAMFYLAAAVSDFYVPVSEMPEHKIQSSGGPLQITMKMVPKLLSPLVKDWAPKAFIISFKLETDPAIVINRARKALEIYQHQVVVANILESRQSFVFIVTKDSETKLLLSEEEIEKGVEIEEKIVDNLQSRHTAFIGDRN

O=c1cc(-c2ccc(O)c(O)c2)oc2cc(O)c(O)cc12 [compound 2b]
inhibition at 0.015625 µM (MtbCoaBC; 0.015625 uM 2b, replicate R1, read-out: Inhibition % R1): 8.08% | activity at 0.015625 µM (MtbCoaBC; 0.015625 uM 2b, replicate R1, read-out: Activity % R1): 91.9% | Activity R1 (MtbCoaBC; 0.015625 uM 2b, replicate R1): 0.0001714 | inhibition at 0.015625 µM (MtbCoaBC; 0.015625 uM 2b, replicate R2, read-out: Inhibition % R2): 5.01% | activity at 0.015625 µM (MtbCoaBC; 0.015625 uM 2b, replicate R2, read-out: Activity % R2): 95% | inhibition at 0.015625 µM (MtbCoaBC; 0.015625 uM 2b, replicate R3, read-out: Inhibition % R3): 10.3% | activity at 0.015625 µM (MtbCoaBC; 0.015625 uM 2b, replicate R3, read-out: Activity % R3): 89.7% | Activity R3 (MtbCoaBC; 0.015625 uM 2b, replicate R3): 0.0001672 | inhibition at 0.03125 µM (MtbCoaBC; 0.03125 uM 2b, replicate R1, read-out: Inhibition % R1): 20.2% | activity at 0.03125 µM (MtbCoaBC; 0.03125 uM 2b, replicate R1, read-out: Activity % R1): 79.8% | Activity R1 (MtbCoaBC; 0.03125 uM 2b, replicate R1): 0.0001487 | inhibition at 0.03125 µM (MtbCoaBC; 0.03125 uM 2b, replicate R2, read-out: Inhibition % R2): 19.2% | activity at 0.03125 µM (MtbCoaBC; 0.03125 uM 2b, replicate R2, read-out: Activity % R2): 80.8% | inhibition at 0.03125 µM (MtbCoaBC; 0.03125 uM 2b, replicate R3, read-out: Inhibition % R3): 19.4% | activity at 0.03125 µM (MtbCoaBC; 0.03125 uM 2b, replicate R3, read-out: Activity % R3): 80.6% | Activity R3 (MtbCoaBC; 0.03125 uM 2b, replicate R3): 0.0001503 | inhibition at 0.0625 µM (MtbCoaBC; 0.0625 uM 2b, replicate R1, read-out: Inhibition % R1): 37.9% | activity at 0.0625 µM (MtbCoaBC; 0.0625 uM 2b, replicate R1, read-out: Activity % R1): 62.1% | Activity R1 (MtbCoaBC; 0.0625 uM 2b, replicate R1): 0.0001157 | inhibition at 0.0625 µM (MtbCoaBC; 0.0625 uM 2b, replicate R2, read-out: Inhibition % R2): 38.9% | activity at 0.0625 µM (MtbCoaBC; 0.0625 uM 2b, replicate R2, read-out: Activity % R2): 61.2% | inhibition at 0.0625 µM (MtbCoaBC; 0.0625 uM 2b, replicate R3, read-out: Inhibition % R3): 38% | activity at 0.0625 µM (MtbCoaBC; 0.0625 uM 2b, replicate R3, read-out: Activity % R3): 62% | Activity R3 (MtbCoaBC; 0.0625 uM 2b, replicate R3): 0.0001157 | inhibition at 0.25 µM (MtbCoaBC; 0.25 uM 2b, replicate R1, read-out: Inhibition % R1): 95% | activity at 0.25 µM (MtbCoaBC; 0.25 uM 2b, replicate R1, read-out: Activity % R1): 4.96% | Activity R1 (MtbCoaBC; 0.25 uM 2b, replicate R1): 0.000009249 | activity at 0.25 µM (MtbCoaBC; 0.25 uM 2b, replicate R2, read-out: Activity % R2): 4.35% | inhibition at 0.25 µM (MtbCoaBC; 0.25 uM 2b, replicate R3, read-out: Inhibition % R3): 95.6% | activity at 0.25 µM (MtbCoaBC; 0.25 uM 2b, replicate R3, read-out: Activity % R3): 4.39% | Activity R3 (MtbCoaBC; 0.25 uM 2b, replicate R3): 0.000008176 | inhibition at 0.5 µM (MtbCoaBC; 0.5 uM 2b, replicate R1, read-out: Inhibition % R1): 97.8% | activity at 0.5 µM (MtbCoaBC; 0.5 uM 2b, replicate R1, read-out: Activity % R1): 2.19% | Activity R1 (MtbCoaBC; 0.5 uM 2b, replicate R1): 0.000004090 | inhibition at 0.5 µM (MtbCoaBC; 0.5 uM 2b, replicate R2, read-out: Inhibition % R2): 99% | activity at 0.5 µM (MtbCoaBC; 0.5 uM 2b, replicate R2, read-out: Activity % R2): 1% | inhibition at 0.5 µM (MtbCoaBC; 0.5 uM 2b, replicate R3, read-out: Inhibition % R3): 97% | activity at 0.5 µM (MtbCoaBC; 0.5 uM 2b, replicate R3, read-out: Activity % R3): 3% | Activity R3 (MtbCoaBC; 0.5 uM 2b, replicate R3): 0.000005588 | inhibition, IC50 MtbCoaBC 2b (MtbCoaBC; [1]): 99.01 | reaction rate (slope of absorbance at 360 nm vs time), IC50 MtbCoaBC 2b (MtbCoaBC; [1]): 0.000001846 and 0.000001860 and -0.000003443 | remaining activity relative to control, IC50 MtbCoaBC 2b (MtbCoaBC; [1]): 0.9903 and 0.9976 and -1.847 | reaction rate (slope of absorbance at 360 nm vs time), IC50 MtbCoaBC 2b (MtbCoaBC; [2]): -0.000001738 and -0.000001919 and -0.000000593 | remaining activity relative to control, IC50 MtbCoaBC 2b (MtbCoaBC; [2]): -0.932 and -1.029 and -0.318 | IC50 (MtbCoaBC; read-out: IC50 EnzChek MtbCoaBC): 0.08 ± 0.01 µM | inhibition at 0.25 µM (MtbCoaBC; read-out: Inhibition % R2): 95.7% | IC50 (human CoaB (HCoaB); 1 µM enzyme, average of three independent experiments ± SD): 60 ± 7 µM | activity at 3.125 µM (human CoaB (HCoaB); 3.125 uM compound, HCoaB, relative to average DMSO CT, replicates R1-R3): 96.1% | Activity % (human CoaB (HCoaB); 3.125 uM compound, HCoaB, relative to average DMSO CT, replicates R1-R3, 3.125 µM): 99.35% and 93.21% | Inhibition % (human CoaB (HCoaB); 3.125 uM compound, HCoaB, replicates R1-R3, 3.125 µM): 0.65% and 6.79% and 3.88% | activity at 6.25 µM (human CoaB (HCoaB); 6.25 uM compound, HCoaB, relative to average DMSO CT, replicates R1-R3): 97.4% | Activity % (human CoaB (HCoaB); 6.25 uM compound, HCoaB, relative to average DMSO CT, replicates R1-R3, 6.25 µM): 94.68% and 99.68% | Inhibition % (human CoaB (HCoaB); 6.25 uM compound, HCoaB, replicates R1-R3, 6.25 µM): 5.32% and 0.32% and 2.58% | activity at 25 µM (human CoaB (HCoaB); 25 uM compound, HCoaB, relative to average DMSO CT, replicates R1-R3): 66.3% | Activity % (human CoaB (HCoaB); 25 uM compound, HCoaB, relative to average DMSO CT, replicates R1-R3, 25 µM): 70.2% and 69.67% | inhibition at 25 µM (human CoaB (HCoaB); 25 uM compound, HCoaB, replicates R1-R3): 29.8% | Inhibition % (human CoaB (HCoaB); 25 uM compound, HCoaB, replicates R1-R3, 25 µM): 30.33% and 33.67%
